{
  "source": "paper PMC10810651",
  "about": "“Discovery of novel and potent CDK8 inhibitors for the treatment of acute myeloid leukaemia” (Journal of Enzyme Inhibition and Medicinal Chemistry, 2024)",
  "key": {"molm-13": {"test_system": "molm-13", "test": "Antiproliferative CCK-8 assay, molm-13", "type": "cell-based", "conditions": "Homo sapiens; molm-13, CCK-8 assay, means ± SD; read-out: GC50 (the source's name)", "source_text": "(§1) Compounds12, 13 and 30 were selected for further cell activity assessments based on the enzymatic activity assessment results. molm-13 and MV4-11(acute myeloid lineage leukaemia cells), MGC-803 (gastric cancer cell), MDA-MB-231(breast cancer cell), A375 (melanoma cell), A549 (lung cancer cell), HCT-116, SW-480 and HT-29 (colorectal cancer cells) were selected to evaluate antitumor activity in vitro, GES-1 (gastric mucosal epithelial cell) was selected to evaluate toxicity in vitro.\n(§2) CO2 atmosphere incubator for 24 h. Then, medium with compound at the concentrations of 100, 20, 4, 0.8, 0.016 μM was added into each well for another 48 h and incubated with CCK-8 (10 μL) for 2 h at 37 °C. The absorbance value at 450 nm was measured by the microplate reader (PerkinElmer Envision). […]"}, "CYP 2D6": {"molecular_target": "CYP 2D6 (Homo sapiens, UniProt P10635)", "sequence (P10635 whole entry)": "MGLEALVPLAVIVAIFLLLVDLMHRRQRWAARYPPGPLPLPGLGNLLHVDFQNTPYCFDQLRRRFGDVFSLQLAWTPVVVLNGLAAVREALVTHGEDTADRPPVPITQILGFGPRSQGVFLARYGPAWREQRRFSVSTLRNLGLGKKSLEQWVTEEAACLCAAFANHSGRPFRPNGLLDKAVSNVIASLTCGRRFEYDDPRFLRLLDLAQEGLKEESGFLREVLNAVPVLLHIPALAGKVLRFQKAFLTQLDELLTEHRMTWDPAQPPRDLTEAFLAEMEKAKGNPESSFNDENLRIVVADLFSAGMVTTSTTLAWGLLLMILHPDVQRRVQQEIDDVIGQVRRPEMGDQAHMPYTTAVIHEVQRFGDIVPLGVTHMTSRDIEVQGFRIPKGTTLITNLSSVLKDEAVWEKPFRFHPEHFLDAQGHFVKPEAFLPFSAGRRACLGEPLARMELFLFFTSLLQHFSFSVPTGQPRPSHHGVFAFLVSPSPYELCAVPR", "test": "CYP inhibition activity, 2D6", "type": "in vitro ADME", "source_text": "Table 7. CYP inhibition activity. | column: IC50 (μM) / 2D6"}, "[1]": {"test": "In vivo pharmacokinetic evaluation", "method": "Pharmacokinetic data is an important parameter for small molecule drugs. Here, the pharmacokinetic data of compound 12 was performed. […] Based on the above data analysis, we believed it is possible that compound 12 could be used as an oral medication (Figure 7)."}, "CDK7": {"molecular_target": "CDK7 (Homo sapiens, UniProt P50613)", "sequence (P50613 whole entry)": "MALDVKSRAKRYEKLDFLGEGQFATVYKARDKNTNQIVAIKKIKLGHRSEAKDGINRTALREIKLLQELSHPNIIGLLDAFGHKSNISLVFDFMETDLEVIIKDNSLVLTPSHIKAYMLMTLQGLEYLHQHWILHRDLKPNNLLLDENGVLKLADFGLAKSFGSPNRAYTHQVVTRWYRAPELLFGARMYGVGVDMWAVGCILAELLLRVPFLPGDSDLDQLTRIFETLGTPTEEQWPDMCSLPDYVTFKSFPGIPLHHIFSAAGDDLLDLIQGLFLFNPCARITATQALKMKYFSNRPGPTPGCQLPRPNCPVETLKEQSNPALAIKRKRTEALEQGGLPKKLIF", "sequence (P51946 whole entry partner)": "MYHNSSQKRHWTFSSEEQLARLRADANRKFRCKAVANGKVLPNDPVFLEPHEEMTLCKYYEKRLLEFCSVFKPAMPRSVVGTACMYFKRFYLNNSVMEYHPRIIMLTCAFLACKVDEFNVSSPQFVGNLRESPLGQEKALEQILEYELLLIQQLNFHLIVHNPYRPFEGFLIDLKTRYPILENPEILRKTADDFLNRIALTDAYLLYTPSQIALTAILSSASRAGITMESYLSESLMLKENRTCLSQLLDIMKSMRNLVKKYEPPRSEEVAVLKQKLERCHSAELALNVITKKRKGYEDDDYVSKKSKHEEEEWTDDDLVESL", "sequence (P51948 whole entry partner)": "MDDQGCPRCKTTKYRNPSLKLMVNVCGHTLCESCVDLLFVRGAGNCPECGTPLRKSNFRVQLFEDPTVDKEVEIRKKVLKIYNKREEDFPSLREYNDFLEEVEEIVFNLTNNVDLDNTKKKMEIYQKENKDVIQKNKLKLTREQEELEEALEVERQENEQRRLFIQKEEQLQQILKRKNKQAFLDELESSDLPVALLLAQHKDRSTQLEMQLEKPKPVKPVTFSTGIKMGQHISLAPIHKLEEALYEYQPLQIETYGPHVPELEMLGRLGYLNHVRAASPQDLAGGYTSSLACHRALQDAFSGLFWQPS", "test": "CDKs selectivity, CDK7", "type": "biochemical", "source_text": "(§3) CDK7 and CDK9 with the same transcription function and CDK2 and CDK6 were selected to evaluate the selectivity of compound 12."}, "CDK8": {"molecular_target": "CDK8 (Homo sapiens, UniProt P49336)", "sequence (P49336 whole entry)": "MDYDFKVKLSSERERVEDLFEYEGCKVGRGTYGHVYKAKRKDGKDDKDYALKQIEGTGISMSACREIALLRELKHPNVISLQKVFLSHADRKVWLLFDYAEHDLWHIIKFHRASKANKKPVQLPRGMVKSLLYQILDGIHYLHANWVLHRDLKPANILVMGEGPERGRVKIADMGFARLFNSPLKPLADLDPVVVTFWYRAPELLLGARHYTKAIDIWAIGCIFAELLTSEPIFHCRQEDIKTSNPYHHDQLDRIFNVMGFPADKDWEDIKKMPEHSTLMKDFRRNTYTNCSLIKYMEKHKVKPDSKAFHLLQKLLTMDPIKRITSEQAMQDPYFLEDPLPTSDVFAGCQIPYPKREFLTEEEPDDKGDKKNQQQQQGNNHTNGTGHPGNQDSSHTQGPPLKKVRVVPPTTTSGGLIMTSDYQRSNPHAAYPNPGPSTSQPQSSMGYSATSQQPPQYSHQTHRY", "test": "Cellular thermal shift assay", "type": "cell-based", "design": "endogenous in cells; host or cells: HCT-116", "conditions": "HCT-116 cells, 5 μM, 6 h; DMSO 49 °C; western blot", "method": "Here, in order to identify compound 12 could bind CDK8, HCT-116 cells, a CDK8 high expression cell line, were treated with 5 μM compound 12 and DMSO for 6 h, respectively. Cell suspension was divided into 11 PCR tubes equally, then the samples were heated from 37 to 67 °C at intervals of 3 °C and the results were analysed through western blot. […] However, CDK8 was degraded almost completely at 55 °C after treated with compound 12, which indicated compound 12 enhanced the thermal stability of CDK8 and compound 12 could bind CDK8.\nCO2 atmosphere incubator for 24 h. Then, medium with compound at the concentrations of 100, 20, 4, 0.8, 0.016 μM was added into each well for another 48 h and incubated with CCK-8 (10 μL) for 2 h at 37 °C. The absorbance value at 450 nm was measured by the microplate reader (PerkinElmer Envision).\nThe kinase inhibition was detected by ADP-Glo™ Kinase Assay (Promega) using a black 384-well plate. […] The data was collected by the microplate reader. […]\nwere broken by ultr asonic treatment and centrifuged at 12000 rpm for 20 min. The supernatant was analyzed by western blot. […]\nAfter co-treated with 2 μM biotinylated compound and compound 12 for 12 h, HCT-116 cells were lysed with NP-40 containing PMSF and centrifuged at 14000 r for 30 min at 4 °C. […] The samples were analyzed by western blot."}, "Caco-2": {"test_system": "Caco-2", "test": "Caco-2 permeability determination", "type": "in vitro ADME", "conditions": "Caco-2"}, "[2]": {"test": "Caco-2 permeability determination", "type": "in vitro ADME", "conditions": "human"}, "CDK2": {"molecular_target": "CDK2 (Homo sapiens, UniProt P24941)", "test": "CDKs selectivity, CDK2", "type": "biochemical", "source_text": "as §3"}, "GES-1": {"test_system": "GES-1", "test": "In vitro toxicity CCK-8 assay, GES-1", "type": "cell-based", "conditions": "Homo sapiens, GES1, GES-1 gastric mucosal epithelial cell, read-out: GC50 (the source's name)", "source_text": "as §1, §2"}, "CYP 2C19": {"molecular_target": "CYP 2C19 (Homo sapiens, UniProt P33261)", "sequence (P33261 whole entry)": "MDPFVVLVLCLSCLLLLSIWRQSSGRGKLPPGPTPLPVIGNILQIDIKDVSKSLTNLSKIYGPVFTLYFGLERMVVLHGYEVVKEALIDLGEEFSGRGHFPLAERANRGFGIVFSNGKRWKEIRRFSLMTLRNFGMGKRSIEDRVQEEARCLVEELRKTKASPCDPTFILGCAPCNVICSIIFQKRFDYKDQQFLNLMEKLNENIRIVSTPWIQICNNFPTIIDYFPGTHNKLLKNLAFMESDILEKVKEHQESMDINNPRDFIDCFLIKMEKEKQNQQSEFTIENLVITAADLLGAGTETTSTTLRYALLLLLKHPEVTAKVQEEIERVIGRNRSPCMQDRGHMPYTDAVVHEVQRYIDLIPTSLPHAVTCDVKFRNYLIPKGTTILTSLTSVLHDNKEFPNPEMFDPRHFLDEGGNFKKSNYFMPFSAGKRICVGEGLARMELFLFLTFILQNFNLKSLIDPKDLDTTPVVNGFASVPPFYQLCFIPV", "test": "CYP inhibition activity, 2C19", "type": "in vitro ADME", "source_text": "Table 7. CYP inhibition activity. | column: IC50 (μM) / 2C19"}, "CYP3A4/5": {"test_system": "CYP3A4/5", "test": "CYP inhibition activity, 3A4/5 (M)", "type": "in vitro ADME", "conditions": "human; CYP 3A4/5 (M)", "source_text": "Table 7. CYP inhibition activity. | column: IC50 (μM) / 3A4/5 (M)"}, "C57BL/6 mice": {"test_system": "C57BL/6 mice", "test": "Acute toxicity study", "type": "in vivo", "conditions": "1000 mg/kg by gastric tube", "method": "The safety of compound 12 in vivo was evaluated through an acute toxicity study on C57BL/6 mice. The compound 12 was administered by gastric tube at a dose of 1000 mg/kg. The normal group was given the same amount of normal saline. […] Finally, the mice were anaesthetised and sacrificed, and the main organs such as heart, liver, spleen, lung and kidney were detected through pathological section."}, "[3]": {"conditions": "blood, iv, 2 mg/kg, 2 mg/kg (iv)"}, "[4]": {"conditions": "blood, po, 10 mg/kg, 10 mg/kg (po)"}},
  "note": "Where two headings read alike, the source gives them in different places.",
  "data": [
    {"compound": "NC(=O)c1cccc(-c2cnc3[nH]cc(-c4ccoc4)c3c2)c1", "note": "[Compound 12, 3-(3-(furan-3-yl)-1H-pyrrolo[2,3-b]pyridin-5-yl)benzamide]", "values": [
      {"measurement": "IC50", "setting": "molm-13", "result": "0.02 ± 0.01", "unit": "µM"},
      {"measurement": "IC50", "setting": "CYP 2D6", "result": "> 50", "unit": "µM"},
      {"measurement": "AUC 0-∞", "setting": "[1]; 2 mg/kg (iv)", "result": 829.75, "unit": "ng·h/mL"},
      {"measurement": "Cmax", "setting": "[1]; 2 mg/kg (iv)", "result": 647.79, "unit": "ng/mL"},
      {"measurement": "AUC 0-∞", "setting": "[1]; 10 mg/kg (po)", "result": 1611.67, "unit": "ng·h/mL"},
      {"measurement": "CL", "setting": "[1]; 10 mg/kg (po)", "result": 104, "unit": "mL/min/kg"},
      {"measurement": "Cmax", "setting": "[1]; 10 mg/kg (po)", "result": 821.82, "unit": "ng/mL"},
      {"measurement": "AUC(0-inf)", "setting": "[1]; [3]", "result": 830, "unit": "ng·h/mL"},
      {"measurement": "half-life", "setting": "[1]; [3]", "result": "~1.12", "unit": "h"},
      {"measurement": "Cmax", "setting": "[1]; blood, iv, 2 mg/kg, 2 mg/kg (iv), read-out: Cmax", "result": 648, "unit": "ng/mL"},
      {"measurement": "AUC(0-inf)", "setting": "[1]; [4]", "result": 1610, "unit": "ng·h/mL"},
      {"measurement": "half-life", "setting": "[1]; [4]", "result": 0.95, "unit": "h"},
      {"measurement": "Cmax", "setting": "[1]; blood, po, 10 mg/kg, 10 mg/kg (po), read-out: Cmax", "result": 822, "unit": "ng/mL"},
      {"measurement": "MRT", "setting": "[1]; blood, 2 mg/kg (iv)", "result": 1.64, "unit": "h"},
      {"measurement": "Tmax", "setting": "[1]; blood, 2 mg/kg (iv)", "result": 0.33, "unit": "h"},
      {"measurement": "clearance", "setting": "[1]; blood, 2 mg/kg (iv)", "result": 40.8, "unit": "mL/min/kg"},
      {"measurement": "MRT", "setting": "[1]; blood, 10 mg/kg (po)", "result": 2.24, "unit": "h"},
      {"measurement": "Tmax", "setting": "[1]; blood, 10 mg/kg (po)", "result": 0.88, "unit": "h"},
      {"measurement": "bioavailability", "setting": "[1]; blood, 10 mg/kg (po) vs 2 mg/kg (iv)", "result": 38.8, "unit": "%"},
      {"measurement": "IC50", "setting": "CDK7", "result": "0.301 ± 0.0278", "unit": "µM"},
      {"measurement": "Temperature at which CDK8 was degraded almost completely", "setting": "CDK8", "result": 55, "unit": "°C"},
      {"measurement": "Permeability (in words)", "setting": "Caco-2", "result": "high permeability"},
      {"measurement": "efflux ratio", "setting": "[2]; Caco-2", "result": 1.3},
      {"measurement": "recovery", "setting": "[2]; Caco-2, Caco-2, A→B, read-out: Recovery A→B", "result": 107, "unit": "%"},
      {"measurement": "recovery", "setting": "[2]; Caco-2, Caco-2, B→A, read-out: Recovery B→A", "result": 108, "unit": "%"},
      {"measurement": "Papp A→B", "setting": "[2]; Caco-2, A→B", "result": 27, "unit": "×10⁻⁶ cm/s"},
      {"measurement": "Papp B→A", "setting": "[2]; Caco-2, B→A", "result": 35.1, "unit": "×10⁻⁶ cm/s"},
      {"measurement": "IC50", "setting": "CDK2", "result": "> 1", "unit": "µM"},
      {"measurement": "IC50", "setting": "GES-1", "result": "25.7 ± 4.97", "unit": "µM"},
      {"measurement": "IC50", "setting": "CYP 2C19", "result": "> 50", "unit": "µM"},
      {"measurement": "IC50", "setting": "CYP3A4/5", "result": "> 5e-05", "unit": "M"},
      {"measurement": "Physiological phenomena such as anorexia, drowsiness, seizures and hyperactivity", "setting": "C57BL/6 mice; 7 days", "result": "no obvious change"},
      {"measurement": "Pathological section of heart, liver, spleen, lung and kidney (HE staining)", "setting": "C57BL/6 mice; after 7 days", "result": "no diseased tissue"}
    ]}
  ]
}
